The supplement of paper PMC10307832

Assays:
Experiment in all cases: relative viability (nuclei count vs DMSO), 5 days (fraction); higher = more cells survive
Serdemetan + Bortezomib = compound: c1ccc2c(CCNc3ccc(Nc4ccncc4)cc3)c[nH]c2c1 [Serdemetan] + CC(C)C[C@H](NC(=O)[C@H](Cc1ccccc1)NC(=O)c1cnccn1)B(O)O [Bortezomib] (partner 0.002 µM)
In short: (§1)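 Dosing by pin tool came one day after lung cancer cell lines were seeded in 1536-well plates, using either one drug or a fixed anchor-drug dose plus five library-drug doses (not always all listed) in √10 steps. After 5 days, nuclei were counted on 4× images. Relative viability is treated-well nuclei count divided by vehicle-well nuclei count, and values are medians of duplicate plates.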

Selisistat + Olaparib = compound: C1CC(C2=C(C1)C3=C(N2)C=CC(=C3)Cl)C(=O)N [Selisistat] + O=C(c1cc(Cc2n[nH]c(=O)c3ccccc23)ccc1F)N1CCN(C(=O)C2CC2)CC1 [Olaparib] (partner 8 µM)
In short: as §1

Selisistat + Alpelisib = compound: C1CC(C2=C(C1)C3=C(N2)C=CC(=C3)Cl)C(=O)N [Selisistat] + Cc1nc(NC(=O)N2CCC[C@H]2C(N)=O)sc1-c1ccnc(C(C)(C)C(F)(F)F)c1 [Alpelisib] (partner 2 µM)
In short: as §1

Serdemetan + Linsitinib = compound: c1ccc2c(CCNc3ccc(Nc4ccncc4)cc3)c[nH]c2c1 [Serdemetan] + C[C@]1(O)C[C@@H](c2nc(-c3ccc4ccc(-c5ccccc5)nc4c3)c3c(N)nccn32)C1 [Linsitinib] (partner 1 µM)
In short: as §1

Cell Line | relative viability (Serdemetan + Bortezomib; first compound 0.04 µM) | relative viability (Serdemetan + Bortezomib; first compound 0.1265 µM) | relative viability (Serdemetan + Bortezomib; first compound 0.4 µM) | relative viability (Serdemetan + Bortezomib; first compound 1.265 µM) | relative viability (Serdemetan + Bortezomib; first compound 4 µM) | relative viability (Selisistat + Olaparib; first compound 0.4 µM) | relative viability (Selisistat + Olaparib; first compound 1.265 µM) | relative viability (Selisistat + Olaparib; first compound 4 µM) | relative viability (Selisistat + Olaparib; first compound 12.65 µM) | relative viability (Selisistat + Olaparib; first compound 40 µM) | relative viability (Selisistat + Alpelisib; first compound 0.4 µM) | relative viability (Selisistat + Alpelisib; first compound 1.265 µM) | relative viability (Selisistat + Alpelisib; first compound 4 µM) | relative viability (Selisistat + Alpelisib; first compound 12.65 µM) | relative viability (Selisistat + Alpelisib; first compound 40 µM) | relative viability (Serdemetan + Linsitinib; first compound 0.04 µM) | relative viability (Serdemetan + Linsitinib; first compound 0.1265 µM) | relative viability (Serdemetan + Linsitinib; first compound 0.4 µM) | relative viability (Serdemetan + Linsitinib; first compound 1.265 µM) | relative viability (Serdemetan + Linsitinib; first compound 4 µM)
HCC-366 | 1.08 | 1.04 | 1.03 | 0.0358 | 0.0541 | 0.306 | 0.344 | 0.359 | 0.364 | 0.387 | 0.341 | 0.337 | 0.268 | 0.397 | 0.354 | 0.731 | 0.317 | 0.244 | 0.0612 | 0.0456
EMC-BAC-2 | 1.07 | 1.06 | 1.04 | 0.907 | 0.939 | 0.577 | 0.504 | 0.676 | 0.371 | 0.405 | 0.693 | 0.708 | 0.674 | 0.697 | 0.777 | 0.802 | 0.753 | 0.787 | 0.755 | 0.613
NCI-H2405 | 0.976 | 0.915 | 0.905 | 0.738 | 0.949 | 0.899 | 0.909 |  | 0.769 | 0.882 | 0.769 |  |  | 0.834 | 0.845 | 0.864 | 0.997 | 0.964 | 0.897 | 0.628
EPLC-272H | 0.967 | 0.931 | 0.899 | 0.723 | 0.634 | 0.888 | 0.787 | 0.626 | 0.749 | 0.657 | 1.02 | 0.853 |  | 0.977 | 0.885 | 1.29 | 1.18 | 1.07 | 1 | 0.703
EBC-1 | 0.482 | 0.575 | 0.588 | 0.563 | 0.421 | 0.763 | 0.732 | 0.711 | 0.728 | 0.66 | 0.982 | 0.891 | 0.806 | 0.807 | 0.911 | 0.807 | 0.904 | 0.952 | 0.794 | 0.634
NCI-H1915 | 0.957 | 0.974 | 1.02 | 0.723 | 0.86 | 0.329 | 0.26 | 0.25 | 0.252 | 0.304 | 1.08 | 1.03 | 1.09 | 1.05 | 1.04 | 1.03 | 1.08 | 1.08 | 0.975 | 0.908
NCI-H596 | 1.17 | 0.606 | 1.11 | 0.649 | 0.818 | 0.802 | 0.715 | 0.643 | 0.619 | 0.609 | 0.587 | 0.482 | 0.42 | 0.502 | 0.482 | 1.14 | 1.04 | 0.789 | 0.623 | 0.541
NCI-H322M | 1.32 | 1.26 | 1.06 | 1.2 | 1.36 | 0.857 | 0.83 |  | 0.845 | 0.868 | 0.932 | 0.934 |  | 0.734 | 0.819 | 0.923 | 0.955 | 0.827 | 0.863 | 0.836
